In patent US20080261898A1, “COMPOSITION AND METHOD FOR CANCER TREATMENT AND PREVENTION” (priority 2007, published 2008):

Columns and labels:
VEGF = VEGF expression in DU-145 cells, immunoblotting; assay type: cell-based, human
Protocol: AC620 was dissolved in ethanol and then added to cultured DU-145 cells, a hormone-refractory, metastatic prostate cancer cell line. The concentrations tested were 0, 0.1, 0.5, 1 and 4 μM, and the cells were grown for 72 hr. Cells treated with ethanol for the same time period were used as Control. DU-145 cells were maintained in RPMI 1640 medium (PAA Laboratories, Pashing, Austria) supplemented with 10% fetal calf serum (FCS) (Sigma, St. Louis, Mo.). After 72 hr treatment, cell Tysates were collected and immunoblotting was performed. The membranes were probed with primary antibodies against VEGF and actin (Santa Cruz Biotechnology, Santa Cruz, Calif.) followed by horseradish peroxidase (HRP)-conjugated secondary antibodies (Amersham Life Science, Alesbury, U.K.) and visualized using the Enhanced Chemi-Luminescence detection system (ECL) and ECL films (Amersham Pharmacia Biotech).

LNCaP cells [1] = experiment: BrdU based cell proliferation assay, LNCaP cells; parameters: species or system human
Protocol: (§1) AC620 was incubated with hormone-refractory prostate cancer cell line DU-145 cells and hormone-responsive prostate cancer cell line LNCaP cells at various concentrations (0, 0.1, 0.5, 1, 5 μM) for 72 hr. LNCaP cells were maintained in RPMI 1640 medium (PAA Laboratories, Pashing, Austria) supplemented with 10% fetal calf serum (FCS) (Sigma, St. Louis, Mo.). The effect of AC620 on proliferation of DU-145 cells and LNCaP cells was determined by using a non-radioactive BrdU based cell proliferation assay kit (Roche, Switzerland) according to manufacturer's protocol. BrdU incorporation into the cellular DNA was determined by measuring the absorbance at 450 nm and 690 nm on an ELISA plate reader.
AC620 was incubated with hormone-refractory prostate cancer cell line DU-145 cells and hormone-responsive prostate cancer cell line LNCaP cells at 0 (Control) and 5 μM for 24, 48 and 72 hr. The effect of AC620 on proliferation of DU-145 cells and LNCaP cells was determined by using a non-radioactive BrdU based cell proliferation assay kit (Roche, Switzerland) according to manufacturer's protocol. BrdU incorporation into the cellular DNA was determined by measuring the absorbance at 450 nm and 690 nm on an ELISA plate reader.

DU-145 cells [2] = experiment: Apoptosis, Annexin V flow cytometry, DU-145 cells; assay type: cell-based, human; details: 72 hr
Protocol: (§2) AC620 was incubated with DU-145 cells and LNCaP cells at various concentrations (0, 0.1, 0.5, 1, 5 μM) for 72 hr. The effect of AC620 on apoptosis of DU-145 cells and LNCaP cells was assessed. The cells were washed in 1×PBS and resuspended in binding buffer (0.01M Hepes pH 7.4, 0.14M NaCl, 2.5 mM CaCl2), stained with Annexin V conjugated with APC (Pharmingen) and then subjected to flow cytometry analysis using FACS Caliber (BD Biosciences, San Jose, Calif.).

DU-145 cells [3] = experiment: Viable cells, Annexin-V staining and flow cytometry, DU-145 cells; assay type: cell-based, human; details: 72 hr
Protocol: (§3) AC620 was incubated with DU-145 cells, LNCaP cells and primary human prostate endothelial cells at high concentrations (0, 5, 100, 500, 1000 μM) for 72 hr. The number of viable cells was measured by Annexin-V staining followed by flow cytometry analysis.

LNCaP cells [4] = experiment: Viable cells, Annexin-V staining and flow cytometry, LNCaP cells; assay type: cell-based, human; details: 72 hr
Protocol: as §3

HT-29 cells [5] = experiment: BrdU based cell proliferation assay, HT-29 cells; details: 72 hr
Protocol: as §1
AC620 was incubated with metastatic colorectal cancer cell line HT-29 cells at various concentrations (0, 0.1, 0.5, 1, 4 μM) for 72 hr. The effect of AC620 on proliferation of HT-29 cells was determined by using a non-radioactive, BrdU based cell proliferation assay as described above.

HT-29 cells [6] = experiment: Apoptosis, Annexin V, HT-29 cells; assay type: cell-based; details: 72 hr
Protocol: as §2
AC620 was incubated with metastatic colorectal cancer cell line HT-29 cells at various concentrations (0, 0.1, 0.5, 1, 4 μM) for 72 hr. The effect of AC620 on apoptosis of HT-29 cells was assessed by Annexin V stating as described above.

VEGF RNA = VEGF RNA expression in xenograft tumor samples, RT-PCR; assay type: in vivo, mouse; details: 30 days treatment
Protocol: (§4) 8-12 week old athymic nude mice (Jackson Laboratories, Bar Harbor, Me., US) were randomly assigned to Control (n=10) and Treatment (n=10) groups. Tumor xenografts were generated by injecting DU-145 cells (4×10^6) subcutaneously into the mice (Day 1). 1 mg/kg body weight of AC620 or PBS (Control) was administrated to the mice by subcutaneous injection starting at the time of tumor implantation (Day 1) and the mice were treated twice a week. Tumors were measured periodically. At Day 30, the mice were sacrificed. Half of each tumor was processed for immunohistochemical analysis and the other half was frozen for subsequent protein and RNA analysis.
Xenograft mouse model was generated and AC620 or PBS (Control) was administrated to the transplanted mice for 30 days as described above. After the mice were sacrificed, immunohistochemical analysis of the tumor samples was performed using VEGF and VEGF R2 antibodies with a semi-automatic system Ventana ES (Ventana Inc, Tucson, Ariz.). The specimens were viewed with an Olympus BX51 microscope. Expression of VEGF in tumor samples at RNA level was measured by RT-PCR.

CDK1 = CDK1 expression in xenograft tumor samples, immunoblotting; assay type: in vivo, mouse
Protocol: as §4
Xenograft mouse model was generated and AC620 or PBS (Control) was administrated to the transplanted mice for 30 days as described above. After the mice were sacrificed, immunoblotting analysis of the tumor samples was performed using CDK1 and CDK2 antibodies as described above.

CC1OC(OCC2OC(Oc3c(-c4ccc(O)c(O)c4)oc4cc(O)c(O)cc4c3=O)C(O)C(O)C2O)C(O)C(O)C1O (stereo not drawn) [AC620]
reduced VEGF expression (VEGF; 0.1 μm AC620, 72 hr): approximately 40% | reduced VEGF expression (VEGF; 0.5 μm AC620, 72 hr): approximately 60% | reduced VEGF expression (VEGF; 1 μm AC620, 72 hr): approximately 80% | reduced VEGF expression (VEGF; 4 μm AC620, 72 hr): over 95% | decrease in cell proliferation of LNCaP cells (LNCaP cells [1]; 5 μM, after 24 hr): 16% | decrease in cell proliferation of LNCaP cells (LNCaP cells [1]; 5 μM, after 48 hr): 20% | decrease in cell proliferation of LNCaP cells (LNCaP cells [1]; 5 μM, after 72 hr (time study)): 65% | decrease in cell proliferation of LNCaP cells (LNCaP cells [1]; 0.1 μm, 72 hr): 23% | decrease in cell proliferation of LNCaP cells (LNCaP cells [1]; 0.5 μm, 72 hr): 20% | decrease in cell proliferation of LNCaP cells (LNCaP cells [1]; 1 μm, 72 hr): 42% | decrease in cell proliferation of LNCaP cells (LNCaP cells [1]; 5 μm, 72 hr (dose study)): 65% | apoptosis increased, DU-145 cells (DU-145 cells [2]; 0.1 μm): 46% | apoptosis increased, DU-145 cells (DU-145 cells [2]; 0.5 μm): 115% | apoptosis increased, DU-145 cells (DU-145 cells [2]; 1 μm): 285% | apoptosis increased, DU-145 cells (DU-145 cells [2]; 5 μm): 389% | viable DU-145 cells decreased (DU-145 cells [3]; 5 μm): 67% | viable DU-145 cells decreased (DU-145 cells [3]; 100 μm): 93% | viable DU-145 cells decreased (DU-145 cells [3]; 500 μm): 94% | viable DU-145 cells decreased (DU-145 cells [3]; 1000 μm): 97% | viable LNCaP cells decreased (LNCaP cells [4]; 5 μm): 42% | viable LNCaP cells decreased (LNCaP cells [4]; 100 μm): 67% | viable LNCaP cells decreased (LNCaP cells [4]; 500 μm): 92% | viable LNCaP cells decreased (LNCaP cells [4]; 1000 μm): 96% | cell proliferation decreased, HT-29 cells (HT-29 cells [5]; 0.1 μm): 0% | cell proliferation decreased, HT-29 cells (HT-29 cells [5]; 0.5 μm): 5% | cell proliferation decreased, HT-29 cells (HT-29 cells [5]; 1 μm): 46% | cell proliferation decreased, HT-29 cells (HT-29 cells [5]; 4 μm): 62% | apoptosis increased, HT-29 cells (HT-29 cells [6]; 0.1 μm): 10% | apoptosis increased, HT-29 cells (HT-29 cells [6]; 0.5 μm): 87% | apoptosis increased, HT-29 cells (HT-29 cells [6]; 1 μm): 220% | apoptosis increased, HT-29 cells (HT-29 cells [6]; 5 μm): 267% | estimated decrease of VEGF RNA expression level in tumor samples (VEGF RNA): ~90% | reduction of CDK1 expression in tumor samples (CDK1; Treatment 1): approximately 80% | reduction of CDK1 expression in tumor samples (CDK1; Treatment 2): > 95% | reduction of CDK1 expression in tumor samples (CDK1; Treatment 3): ~90% | reduction of CDK1 expression in tumor samples (CDK1; Treatment 4): approximately 80%
